Assay results taken from article PMC7129073 (Clinical Microbiology and Infection, 2015).
Converted amounts (≈) assume the structure as drawn. Where two headings read alike, the source gives them in different places.

How the values were obtained:
Escherichia coli = experiment: Vitek 2 susceptibility, urine isolates of children; assay type: cell-based
K. pneumoniae [1] = experiment: MIC; assay type: cell-based, Klebsiella pneumoniae; conditions: for MIC: Klebsiella pneumoniae
[2] = test system: inducible Enterobacteriaceae; experiment: SMART 2003, intraabdominal isolates; assay type: cell-based
Enterobacteriaceae = experiment: SMART 2003 Europe, microdilution; assay type: cell-based; conditions: 1948 isolates
E. coli [3] = experiment: SMART 2003 Europe, microdilution; assay type: cell-based, Escherichia coli; conditions: 1106 isolates
Klebsiella = experiment: SMART 2003 Europe, microdilution; assay type: cell-based, Klebsiella spp.; conditions: 341 isolates
H.influenzae = experiment: Broth microdilution; assay type: cell-based, Haemophilus influenzae; conditions: for %Sus: NCCLS
S. pneumoniae [4] = experiment: Broth microdilution; assay type: cell-based, Streptococcus pneumoniae
PRSP = experiment: Broth microdilution; assay type: cell-based, Streptococcus pneumoniae
ERSP = experiment: Broth microdilution; assay type: cell-based, Streptococcus pneumoniae
[5] = test system: Streptococcus agalactiae strains P0162 and P0425; experiment: Microdilution; assay type: cell-based
Acinetobacter = experiment: Disk diffusion; assay type: cell-based; conditions: 37 isolates selected as resistant to beta-lactams
nontyphoidal Salmonella = experiment: Agar dilution, isolates from chickens 1998–2004; assay type: cell-based, Salmonella spp.
F. necrophorum = experiment: E-test, 13 clinical isolates; assay type: cell-based, Fusobacterium necrophorum
MSSA = experiment: Agar dilution MIC; assay type: cell-based, Staphylococcus aureus
K. pneumoniae [6] = experiment: E-test susceptibility; assay type: cell-based, Klebsiella pneumoniae
Enterobacter spp = experiment: E-test susceptibility; assay type: cell-based
Shigella spp. = experiment: Disk diffusion, stool isolates Tehran; assay type: cell-based; conditions: 96 isolates
E. coli [7] = experiment: E-test susceptibility; assay type: cell-based, Escherichia coli
K. oxytoca = experiment: E-test susceptibility; assay type: cell-based, Klebsiella oxytoca
S. pneumoniae (SPN) = experiment: NCCLS broth microdilution, fluoroquinolones 1999–2004; assay type: cell-based, Streptococcus pneumoniae; conditions: for MIC50 / MIC90: Streptococcus pneumoniae
S. pneumoniae [8] = experiment: MIC of invasive strains, Saint George Hospital 2001–2004; assay type: cell-based, Streptococcus pneumoniae
[9] = NCCLS breakpoints (Amox/Clav 2/1 mcg/mL)
[10] = PK breakpoint of 4/2 mcg/mL, Augmentin ES-600
[11] = ICU, SRGA breakpoints, tigecycline tentative S ≤2 μg/ml

CC(=O)OCC1=C(C(=O)O)N2C(=O)[C@@H](NC(=O)Cc3cccs3)[C@H]2SC1 [cefalothin]
susceptibility rate (Escherichia coli; paediatric surgical unit (PSU)): 19% | susceptibility rate (Escherichia coli; paediatric units (PU)): 66%

C[C@@H](O)[C@H]1C(=O)N2C(C(=O)O)=C(S[C@@H]3CN[C@H](C(=O)Nc4cccc(C(=O)O)c4)C3)[C@H](C)[C@H]12 [ertapenem]
MIC (K. pneumoniae [1]): > 16 µg/mL | % susceptible ([2]; A/P (N = 200)): 98% | % susceptible ([2]; EU (N = 354)): 98% | % susceptible ([2]; LA (N=113)): 91% | % susceptible ([2]; NA (N = 163)): 94% | per cent susceptible (Enterobacteriaceae): 99% | per cent susceptible (E. coli [3]): >99% | per cent susceptible (Klebsiella): 99%

Amoxicillin / Clavulanic acid [Amox/Clav]
MIC90 (H.influenzae): 2 µg/mL | %Sus (H.influenzae): 99.2% | MIC90 (S. pneumoniae [4]): 2 µg/mL | %Sus (S. pneumoniae [4]; [9]): 92.3% | %Sus (S. pneumoniae [4]; [10]): 96.5% | MIC90 (PRSP): 8 µg/mL | %Sus (PRSP; [9]): 67.1% | %Sus (PRSP; [10]): 83.5% | MIC90 (ERSP): 8 µg/mL | %Sus (ERSP; [9]): 81.5% | %Sus (ERSP; [10]): 88.6%

NC1CCN(c2c(F)cc3c(=O)c(C(=O)O)cn(C4CC4)c3c2Cl)C1 (stereo not drawn) [clinafloxacin]
MIC ([5]; strain P0162 (ParC Ser79Phe, GyrA Glu85Ala)): 0.25 µg/mL (≈ 0.683 µM) | MIC ([5]; strain P0425 (ParC Ser79Phe, GyrA Glu85Lys)): 0.75 µg/mL (≈ 2.05 µM)

CC1(C)S[C@@H]2[C@H](NC(=O)[C@H](NC(=O)N3CCN(S(C)(=O)=O)C3=O)c3ccccc3)C(=O)N2[C@H]1C(=O)O [mezlocillin]
resistant isolates (Acinetobacter): 100.0%

trimethoprim/sulfadiazine [TS]
resistance (nontyphoidal Salmonella; Belgian collection (caecal samples; Belgium, France, Netherlands)): 18% | resistance (nontyphoidal Salmonella; Germany (carcass meat)): 12%

C[C@H]1c2cccc(O)c2C(=O)C2=C(O)[C@]3(O)C(=O)C(C(N)=O)=C(O)[C@@H](N(C)C)[C@@H]3[C@@H](O)[C@@H]21 [doxycycline]
resistant isolates (Acinetobacter): 54.1% | MIC range (F. necrophorum): 0.016 to 0.75 µg/mL | MIC50 (F. necrophorum; Fusobacterium necrophorum): 0.064 µg/mL (≈ 0.144 µM) | MIC90 (F. necrophorum; Fusobacterium necrophorum): 0.19 µg/mL (≈ 0.428 µM)

Cc1onc(-c2ccccc2Cl)c1C(=O)N[C@@H]1C(=O)N2[C@@H]1SC(C)(C)[C@@H]2C(=O)O [Cloxacilin, cloxacillin]
MIC50 (MSSA; Staphylococcus aureus, MSSA): < 0.25 µg/mL | MIC90 (MSSA; Staphylococcus aureus, MSSA): < 0.25 µg/mL | MIC range (MSSA; n = 200): 125 to 16000 µg/mL

CN(C)c1cc(NC(=O)CNC(C)(C)C)c(O)c2c1C[C@H]1C[C@H]3[C@H](N(C)C)C(O)=C(C(N)=O)C(=O)[C@@]3(O)C(O)=C1C2=O [Tigecycline]
Susceptible isolates (K. pneumoniae [6]; ICU): 93% | Susceptible isolates (K. pneumoniae [6]; non ICU): 98% | Susceptible isolates (Enterobacter spp; ICU): 91% | Susceptible isolates (Enterobacter spp; non ICU): 96%

CO/N=C(\C(=O)N[C@@H]1C(=O)N2C(C(=O)O)=CCS[C@H]12)c1csc(N)n1 [ceftizoxime]
sensitive (Shigella spp.): 85% | resistant isolates (Acinetobacter): 86.5%

CO[C@@]1(NC(=O)C(C(=O)O)c2ccc(O)cc2)C(=O)N2C(C(=O)O)=C(CSc3nnnn3C)CO[C@@H]21 (stereo partly drawn) [moxalactam]
resistant isolates (Acinetobacter): 75.7%

CO/N=C(\C(=O)N[C@@H]1C(=O)N2C(C(=O)[O-])=C(C[N+]3(C)CCCC3)CS[C@H]12)c1csc(N)n1 [cefepime]
MIC (K. pneumoniae [1]): > 64 µg/mL | resistant isolates (Acinetobacter): 21.6% | % susceptible ([2]; A/P (N = 200)): 89% | % susceptible ([2]; EU (N = 354)): 97% | % susceptible ([2]; LA (N=113)): 88% | % susceptible ([2]; NA (N = 163)): 92% | per cent susceptible (Enterobacteriaceae): 96% | per cent susceptible (E. coli [3]): 96% | per cent susceptible (Klebsiella): 94% | Susceptible isolates (E. coli [7]; [11]): 98% | Susceptible isolates (E. coli [7]; non ICU): 99% | Susceptible isolates (K. pneumoniae [6]; ICU): 98% | Susceptible isolates (K. pneumoniae [6]; non ICU): 100% | Susceptible isolates (K. oxytoca; ICU): 100% | Susceptible isolates (K. oxytoca; non ICU): 96% | Susceptible isolates (Enterobacter spp; ICU): 84% | Susceptible isolates (Enterobacter spp; non ICU): 92%

CC1(C)S[C@@H]2[C@H](NC(=O)C(C(=O)O)c3ccccc3)C(=O)N2[C@H]1C(=O)O (stereo partly drawn) [carbenicillin]
resistant isolates (Acinetobacter): 100.0%

CO/N=C1\CN(c2nc3c(cc2F)c(=O)c(C(=O)O)cn3C2CC2)CC1CN (stereo not drawn) [GEMI, gemifloxacin]
MIC range (S. pneumoniae (SPN)): 0.25 to 2 µg/mL | % I (S. pneumoniae (SPN); 1999 (554)): 0.4% | % S (S. pneumoniae (SPN); 1999 (554)): 99.6% | %R (S. pneumoniae (SPN); 1999 (554)): 0.0% | % I (S. pneumoniae (SPN); 2000 (508)): 0.2% | % S (S. pneumoniae (SPN); 2000 (508)): 99.6% | %R (S. pneumoniae (SPN); 2000 (508)): 0.2% | % I (S. pneumoniae (SPN); 2001 (1.435)): 0.3% | % S (S. pneumoniae (SPN); 2001 (1.435)): 99.4% | %R (S. pneumoniae (SPN); 2001 (1.435)): 0.3% | % I (S. pneumoniae (SPN); 2002 (1.502)): 0.3% | % S (S. pneumoniae (SPN); 2002 (1.502)): 99.5% | %R (S. pneumoniae (SPN); 2002 (1.502)): 0.2% | % I (S. pneumoniae (SPN); 2003 (890)): 0.0% | % S (S. pneumoniae (SPN); 2003 (890)): 100.0% | %R (S. pneumoniae (SPN); 2003 (890)): 0.0% | % I (S. pneumoniae (SPN); 2004 (1.003)): 0.7% | % S (S. pneumoniae (SPN); 2004 (1.003)): 99.2% | %R (S. pneumoniae (SPN); 2004 (1.003)): 0.1% | % I (S. pneumoniae (SPN); All years (5.892)): 0.3% | % S (S. pneumoniae (SPN); All years (5.892)): 99.5% | %R (S. pneumoniae (SPN); All years (5.892)): 0.2% | MIC50 (S. pneumoniae (SPN)): 0.5 µg/mL (≈ 1.28 µM) | MIC90 (S. pneumoniae (SPN)): 1 µg/mL (≈ 2.57 µM) | MIC50 (S. pneumoniae (SPN); 1999 (554)): ≤ 0.03 µg/mL | MIC90 (S. pneumoniae (SPN); 1999 (554)): ≤ 0.03 µg/mL | MIC50 (S. pneumoniae (SPN); 2000 (508)): ≤ 0.03 µg/mL | MIC90 (S. pneumoniae (SPN); 2000 (508)): ≤ 0.03 µg/mL | MIC50 (S. pneumoniae (SPN); 2001 (1.435)): 0.016 µg/mL (≈ 0.0411 µM) | MIC90 (S. pneumoniae (SPN); 2001 (1.435)): 0.03 µg/mL (≈ 0.077 µM) | MIC50 (S. pneumoniae (SPN); 2002 (1.502)): 0.016 µg/mL (≈ 0.0411 µM) | MIC90 (S. pneumoniae (SPN); 2002 (1.502)): 0.03 µg/mL (≈ 0.077 µM) | MIC50 (S. pneumoniae (SPN); 2003 (890)): 0.016 µg/mL (≈ 0.0411 µM) | MIC90 (S. pneumoniae (SPN); 2003 (890)): 0.03 µg/mL (≈ 0.077 µM) | MIC50 (S. pneumoniae (SPN); 2004 (1.003)): 0.016 µg/mL (≈ 0.0411 µM) | MIC90 (S. pneumoniae (SPN); 2004 (1.003)): 0.03 µg/mL (≈ 0.077 µM) | MIC50 (S. pneumoniae (SPN); All years (5.892)): 0.016 µg/mL (≈ 0.0411 µM) | MIC90 (S. pneumoniae (SPN); All years (5.892)): 0.03 µg/mL (≈ 0.077 µM) | MIC90 (S. pneumoniae (SPN); read-out: MIC90 during the six years, 1999–2004): 0.03 µg/mL (≈ 0.077 µM)

CO/N=C(\C(=O)N[C@@H]1C(=O)N2C(C(=O)O)=C(COC(N)=O)CS[C@H]12)c1ccco1 [Cefuroxime, cefuroxim]
MIC90 (H.influenzae): 2 µg/mL (≈ 4.71 µM) | %Sus (H.influenzae): 96.7% | MIC90 (S. pneumoniae [4]): 8 µg/mL (≈ 18.9 µM) | %Sus (S. pneumoniae [4]; [9]): 65.2% | MIC90 (PRSP): 8 µg/mL (≈ 18.9 µM) | %Sus (PRSP; [9]): 0.7% | MIC90 (ERSP): 8 µg/mL (≈ 18.9 µM) | %Sus (ERSP; [9]): 26.0% | % S (S. pneumoniae [8]): 95.2% | %R (S. pneumoniae [8]): 4.8% | Susceptible isolates (E. coli [7]; [11]): 92% | Susceptible isolates (E. coli [7]; non ICU): 94%

CCn1cc(C(=O)O)c(=O)c2cc(F)c(N3CCNC(C)C3)c(F)c21 (stereo not drawn) [lomefloxacin]
resistant isolates (Acinetobacter): 100.0%

colistin
susceptibility category (K. pneumoniae [1]; BSAC): susceptible

Trimethoprim/sulfamethoxazole [TMP/SMX]
MIC90 (H.influenzae): > 4 µg/mL | %Sus (H.influenzae): 76.5% | MIC90 (S. pneumoniae [4]): 8 µg/mL | %Sus (S. pneumoniae [4]; [9]): 50.2% | MIC90 (PRSP): > 8 µg/mL | %Sus (PRSP; [9]): 13.8% | MIC90 (ERSP): 8 µg/mL | %Sus (ERSP; [9]): 24.5%

CCN1CCN(C(=O)N[C@@H](C(=O)N[C@@H]2C(=O)N3C(C(=O)O)=C(CSc4nnnn4C)CS[C@H]23)c2ccc(O)cc2)C(=O)C1=O [cefoperazone]
resistant isolates (Acinetobacter): 100.0%
